# Measurements taken from paper PMC10464304, “Refined read‐out: The hUHRF1 Tandem‐Tudor domain prefers binding to histone H3 tails containing K4me1 in the context of H3K9me2/3” (Protein Science : A Publication of the Protein Society, 2023).
# Biological target: T1, hUHRF1‐TTD WT (GST‐fused, residues 126–280) (Homo sapiens, UniProt Q96T88)
# T1 construct: on previously defined borders (residues 126–280; Rothbart et al., [2012]) was N‐terminally fused to GST; made in house; host or cells: Escherichia coli
# T1 sequence (Q96T88 126-280): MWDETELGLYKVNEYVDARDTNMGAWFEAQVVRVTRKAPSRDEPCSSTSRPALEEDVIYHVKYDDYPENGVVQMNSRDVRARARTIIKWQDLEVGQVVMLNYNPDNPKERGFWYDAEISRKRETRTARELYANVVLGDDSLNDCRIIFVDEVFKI
# Test: Equilibrium peptide binding titration by fluorescence anisotropy (FA), TTD WT
# Protocol: The Tandem Tudor domain of hUHRF1 (UNIPROT Q96T88) on previously defined borders (residues 126–280; Rothbart et al., [2012]) was N‐terminally fused to GST. Mutations were introduced using an updated rolling circle protocol and validated by Sanger sequencing. Proteins were overexpressed in Escherichia coli by induction with 1 mM isopropyl‐β‐D‐thiogalactopyronoside (IPTG) when OD600 reached 0.6–0.8, and the culture was continued overnight at 20°C. The cells were harvested by centrifugation for 30 min, at 4°C and 3781 g. For purification, each pellet was resuspended in 30 mL sonication buffer (500 mM KCl, 20 mM HEPES pH 7.5, 10% v/v glycerol, and 0.2 mM dithiothreitol [DTT]) and sonicated for cell lysis (Q120 Sonicator, Active Motif). After centrifugation for 1 h at 4°C and 45,850 g, the soluble protein was purified using Glutathione Agarose 4B gravitational columns and dialyzed against dialysis buffer (200 mM KCl, 20 mM HEPES, 10% v/v glycerol, pH 7.5, and 0.2 mM DTT). […] Protein concentration was determined spectroscopically by A 280 and purity was verified on SDS‐PAGE.
# Equilibrium peptide binding experiments were performed on a Jasco FP‐8300 spectrofluorometer with an automatic polarizer FDP‐837. […] Acquisitions were performed at 23°C with excitation at 493 nm and emission measured at 520 nm, slit width set to 5 nm for both, and multiple accumulations. […]
substance,measurement,setting,value
"ARTK(me1)QTARK(me2)STGGKAPRKQ-K(FITC) [H3K4me1‐K9me2, FITC‐labeled histone H3 (1-19) peptide with K4me1 and K9me2]",preference for the double‐modified peptide,"H3K4me1‐K9me2 versus H3K9me2 peptide, FA titrations with GST‐TTD WT (Figure S3a)",> 2 fold
"ARTK(me1)QTARKSTGGKAPR-K(FITC) [H3K4me1, FITC‐labeled histone H3 (1-17) peptide with K4me1]",binding of TTD WT to the peptide (in words),"Supplemental Figure 3B, control data, FA titration",weakly
